Assay [1] has as its system BV2 microglial cells. As to the kind of experiment: LPS-induced TNFα secretion by BV2 microglia cell cultures (ELISA). The settings on record: for effect on lipopolysaccharide-induced TNFα secretion: THC 0.1, 0.5 and 1 µM, CBDA 0.2, 1 and 2 µM, CBC 0.1, 1 and 2 µM, α-pinene, β-pinene, limonene 25 or 100 µM; for IC50: Mus musculus, BV-2, read-out: IC50 for inhibiting LPS-induced TNFα release; for levels of TNFα compared to cultures treated with vehicle and LPS: 24-hours incubation, CBD 10 but not 1 µM, linalool 100 but not 25 µM, kaempferol dose-dependently at 10, 25 and 50 µM, quercetin 10 and 25 but not 5 µM. The class given is cell-based, murine. On the procedure:
(§1) The BV2 murine microglial cell line is used in these studies.
(§2) The BV2 cells are cultured at 37° C. in a humidified atmosphere with 5% CO2 in high D-glucose (4.5 g/L) Dulbecco’s modified Eagle’s medium (Sigma, Rehovot, Israel) supplemented with 5% heat-inactivated fetal bovine serum, streptomycin (100 µg/ml), and penicillin (100 units/ml) and sodium pyruvate (1 mM; all from Biological Industries Ltd., Kibbutz Beit Haemek, Israel). 24 hours before experiments with LPS stimulation, the BV2 cells are split into 24 well plates, 2×10^5 cells per well, covered with 1 ml of growth medium and allowed to attach overnight. 24 hr before experiments with α-synuclein, the BV2 cells are split into 96-well plates, 50,000 (5×10^4) cells per well, covered with 200 µl of growth medium and allowed to attach overnight. Cultures of BV2 microglia cells are first treated by an individual cannabinoid, or terpene or flavonoid selected from: Cannabidiol (CBD), Δ-9-tetrahydrocannabinol (THC), Δ-8-tetrahydrocannabinol (THC), cannabigerol (CBG), cannabichromene (CBC), cannabigerolic acid (CBGA), Cannabidiolic acid (CBDA), THC acid (THCA), cannabichromenic Acid (CBCA), Cannabidivarin (CBDV), tetrahydrocannabivarin (THCV), Cannabichromevarin (CBCV), Cannabichromerocin ([…]), Cannabivarin (CBV), Cannabicitran (CBT), Cannabinol (CBN), Cannabicyclol (CBL), Cannabigerorcin (CBGO), Cannabinodiol (CBND), β-caryophyllene, β-elemene, β-myrcene, linalool, α-pinene, β-pinene, eucalyptol, alpha-terpineol, valencene, geraniol (lemonol), bisabolol, nerolidol, ocimene, terpinolene, humulene, α-terpinene, camphene, fenchol, α-phellandrene, Δ3-carene, γ-cardinene, sabinene, limonene, β-amyrin, cycloartenol, cannflavin A, cannflavin B, kaempferol, quercetin, luteolin, apigenin, canniprene, orientin, β-sitosterol, vitexin, isovitexin, and chrysin. Additional cultures of BV2 microglia cells are treated by an individual cannabinoid, with at least one additional cannabinoid, and/or terpene, and/or flavonoid, and/or celecoxib. Additional cultures are exposed to the vehicle of these compounds (cremophor, ethanol and PBS, 1:1:18 (v/v/v)) (FIG. 2A). In some studies, cultures of BV2 microglia cells are treated by a specific whole plant cannabis extract, with or without supplementation with cannabinoid(s), and/or terpene(s) and/or flavonoid(s), and/or celecoxib (FIG. 2B).
For each individual cannabinoid mentioned above, 3-4 concentrations are used, ranging from 0.1 to 10 µM. For ultra-low dose Δ9-THC the concentration used is 0.01 µM. […] For celecoxib, 3-4 concentrations are used, ranging from 0.1 to 10 µM. Two hours following the treatment, the cultures are exposed to one of the following microglia stimulators: LPS (Sigma L2630; Escherichia coli serotype O111:B4) is dissolved in D-PBS (Sigma, D8537) to a pre-stock concentration of 1 mg/ml, aliquoted and stored at -80° C. Stock solution of LPS at 10 ug/ml is prepared using sterile D-PBS, followed by filtering via 0.22 µm filter membrane, aliquoting and storing in -20° C. LPS is applied into the cell medium at a final concentration of 100 ng/ml. Poly I:C (Sigma, P1530) was first dissolved in sterile, molecular grade water to the concentration of 10 mg/ml (following the manufacturer’s instructions). This stock solution was further diluted to the concentration of 1 mg/ml in sterile PBS, and the aliquots stored in -20 °C.
(An ELISA detects its analyte on a solid surface through an enzyme-linked reagent.)

The subject of assay [2] is BV2 microglial cells. As to the kind of experiment: LPS-induced IL-6 release by BV2 microglia cell cultures (ELISA). Type of assay: cell-based, murine. On the procedure: as §1, §2
(§3) For each individual cannabinoid mentioned above, 3-4 concentrations are used, ranging from 0.1 to 10 µM. For ultra-low dose Δ9-THC the concentration used is 0.01 µM. For each individual terpene or flavonoid mentioned above, 3-4 concentrations are used, ranging from 1 to 50 µM. For celecoxib, 3-4 concentrations are used, ranging from 0.1 to 10 µM. Two hours following the treatment, the cultures are exposed to one of the following microglia stimulators: LPS (Sigma L2630; Escherichia coli serotype O111:B4) is dissolved in D-PBS (Sigma, D8537) to a pre-stock concentration of 1 mg/ml, aliquoted and stored at -80° C. Stock solution of LPS at 10 ug/ml is prepared using sterile D-PBS, followed by filtering via 0.22 µm filter membrane, aliquoting and storing in -20° C. LPS is applied into the cell medium at a final concentration of 100 ng/ml. Poly I:C (Sigma, P1530) was first dissolved in sterile, molecular grade water to the concentration of 10 mg/ml (following the manufacturer’s instructions). This stock solution was further diluted to the concentration of 1 mg/ml in sterile PBS, and the aliquots stored in -20 °C.

The next assay relates to LPS-injected mice. The experiment in a line: Body weight change and food consumption in the LPS-induced model of depression. Type of assay: in vivo. The settings on record: Example 9; male C57BL/6, i.p. 1 h before LPS 330 µg/kg; mg/kg: CBD 30; CBD 30 plus THC 10; cannabinol 10; CBD 30 plus BCP 50. From the text:
Animals were housed 2-3/cage, kept in an air-conditioned room (23+°C) and given ad libitum access to food and water. The mice were kept in a reversed light/dark cycle, with lights off from 7 a.m. to 7 p.m. All experiments were approved by the Hebrew University of Jerusalem Ethics Committee on Animal Care and Use. In preparation for the Sucrose Preference Test, mice were habituated 2-3 times to sucrose drinking, by exposing them overnight to two graduated tubes, one containing water and the other containing sucrose solution (1%, w/v). Water and sucrose consumption were measured, and sucrose preference was computed by dividing the amount of sucrose consumed by drinking (ml sucrose) by the total drinking volume (ml of sucrose + water). One day later, the weight of the mice and the food in their cages was weighed for later analysis of food consumption and body weight changes. Groups of mice were injected intraperitoneally (i.p.) with either vehicle (cremophor, ethanol and PBS, 1:1:18 (v/v/v)) or a cannabinoid-based formulation (by itself or with another cannabinoid, or a terpene or a flavonoid). One hour later, each of these groups was injected with LPS (330 µg/kg). All injections were administered at a dose of 10 ml/kg. Four hours following the LPS injection, mice were tested in the Open-Field Test. In this test, the measured locomotor activity reflects not only motor capacity, but particularly the innate motivation for spatial exploration (which increases the distance travelled) and the anxiety level (which reduces the distance travelled, in general, and particularly the distance and time spent in the center of the open field). Each subject was placed near one of the walls of a white 50 X 50 cm^2 arena with 40 cm high walls. The distance travelled (cm), the velocity of the movement (cm/second), the time spent (seconds), distance travelled (cm) in the center area of the arena, as well as the number of entries from the perimeter area into the center of the arena were automatically measured over a 4-minute period, using EthoVision XT video tracking system and software (Noldus, The Netherlands). Twenty-four hours after the LPS injection, mice were tested in the Social Exploration Test. In this test, the subject was placed in an observation cage containing a small metal wire mesh cage with a conspecific mouse inside it. Social exploration, defined as the time of near contact between the nose of the subject and the juvenile in the small cage was recorded for 4 min, using computerized in-house software. Sucrose preference was assessed, as described above, between 8 to 27 hr post LPS injection. Body weight and weight of the food were measured two hours before the LPS injection, and again after 24 hours, and the change in body weight and food consumption were calculated.
This particular study was conducted in several experimental cohorts, and not all compounds and all measures were studied in all cohort. However, each cohort included a vehicle-treated group; therefore, the scores in each behavioral test were converted to % of mean vehicle-treated group in every individual cohort/experiment. Statistical comparisons were computed using SPSS software and consisted of one-way analyses of variance (ANOVA), followed by post-hoc comparisons with the Student-Newman-Keuls method.

Assay [3] concerns BV2 microglial cells. As to the kind of experiment: α-synuclein-induced TNFα secretion by BV2 microglia cell cultures. Type of assay: cell-based, murine. The note with it: Mus musculus. On the procedure:
as §2
as §3, with “°C. […] To induce oligomerization, α-Synuclein solution is placed for 24 hours on a shaker with agitation of 80 rpm and at 37° C.” for “°C.”

Assay [4] deals with BV2 microglial cells. As to the kind of experiment: LPS-induced IL-1β release by BV2 microglia cell cultures (ELISA). The class given is cell-based, murine. The procedure: as §1, §2, §3

Ten compounds from patent publication US20230270764A1, “COMPOSITION COMPRISING CANNABINOIDS, TERPENES, AND FLAVONOIDS FOR TREATING DEPRESSION” (priority 2020, published 2023) can be followed below.

In general, IC50 refers to the concentration at which inhibition is half-maximal.

Molecules are shown by their SMILES.

`CCCCCc1cc(O)c2c(c1)OC(C)(CCC=C(C)C)C=C2` (stereo not shown) [CBC, cannabichromene]: the “effect on lipopolysaccharide-induced TNFα secretion” value (“effect” for short) in the assay on BV2 microglial cells [1] is “no effect”.

With `C=C(C)[C@@H]1CCC(C)=C[C@H]1c1c(O)cc(CCC)cc1O` [CBDV, cannabidivarin], the “IL-6 secretion vs Veh plus LPS” value with BV2 microglial cells [2] (Example 6, CBD or CBDV given by themselves) is given as “no significant effect”. The “times less potent than CBD in inhibiting IL-6 release” value in the assay with BV2 microglial cells [2] (Example 6, IC50 comparison) is “about 2 times”. Further, the IC50 in the assay with BV2 microglial cells [2] (Mus musculus, BV-2, Example 6 (FIG. 7D), by itself, read-out: IC50 for inhibiting LPS-induced IL-6 release) is 9.6 µM; with BV2 microglial cells [1], 27.9 µM. Besides, the “times less potent than CBD in inhibiting TNFα release” value with BV2 microglial cells [1] (Example 6, IC50 comparison) is recorded as about 6 times. Also, the “release of TNFα vs LPS-activated cultures treated with vehicle” value with BV2 microglial cells [1] (Example 6, by itself, CBD 1, 2.5 and 5 µM, CBDV 1, 2.5, 5 and 10 µM) is “no concentration of either CBD or CBDV by itself affected release of TNFα”.

For the compound `CCCCCc1cc(O)c2c(c1)OC(C)(C)[C@@H]1CCC(C)=C[C@@H]21` [THC, Δ-9 tetrahydrocannabinol], the “effect” value in the assay with BV2 microglial cells [1] is “no effect”.

As to `CCCCCc1cc(O)c2c(c1)OC(C)(C)c1ccc(C)cc1-2` [cannabinol], in the assay on LPS-injected mice, the “food consumption over 24 hr vs vehicle-treated group” value is reported as “consumed significantly less food”.

Consider `Cc1ccc(-c2cc(C(F)(F)F)nn2-c2ccc(S(N)(=O)=O)cc2)cc1` [celecoxib], for which the IC50 was 4.2 µM in the assay on BV2 microglial cells [3] (BV-2, Example 8 (FIG. 9B), by itself, read-out: IC50, α-synuclein-induced TNFα release); 2 µM in the assay with BV2 microglial cells [3] (BV-2, addition of 1 µM CBD, read-out: celecoxib IC50, α-synuclein-induced TNFα release); 1.7 µM with BV2 microglial cells [3] (BV-2, addition of 2.5 µM CBD, read-out: celecoxib IC50, α-synuclein-induced TNFα release); 1.1 µM with BV2 microglial cells [3] (BV-2, addition of 5 µM CBD, read-out: celecoxib IC50, α-synuclein-induced TNFα release).

Take `C=C(C)[C@H]1CC=C(C)CC1` [limonene]: the “effect” value with BV2 microglial cells [1] is given as “no effects”.

On to `C=CC(C)(O)CCC=C(C)C` (stereo not shown) [linalool], for which the “levels of TNFα compared to cultures treated with vehicle and LPS” value in the assay with BV2 microglial cells [1] is “reduced”.

Turning to `O=c1c(O)c(-c2ccc(O)c(O)c2)oc2cc(O)cc(O)c12` [quercetin], the “IL-1β release vs Veh plus LPS” value with BV2 microglial cells [4] (Example 5, alone at 5 µM, no effect at 1 and 2.5 µM) is recorded as “significantly decreased IL-1β levels”. Besides, in the assay with BV2 microglial cells [4] (Mus musculus, BV-2, Example 5 (FIG. 6D), by itself, read-out: IC50 for inhibiting LPS-induced IL-1β release), the 50% inhibitory concentration (IC50) was 2.6 µM. In addition, in the assay with BV2 microglial cells [1], the “levels of TNFα compared to cultures treated with vehicle and LPS” value is listed as “reduced”; the IC50 turned out to be 6.2 µM. Also, the “release of TNFα vs LPS-activated cultures treated with vehicle” value with BV2 microglial cells [1] (Example 5, by themselves, CBD 1 and 2.5 µM, quercetin 1, 2.5 and 5 µM) was “did not affect”.

Take `CC1=CCC2CC1C2(C)C` (stereo not drawn) [α-pinene]: the “effect” value in the assay on BV2 microglial cells [1] is listed as “no effects”.

With `C=C1CCC2CC1C2(C)C` (stereo not drawn) [β-pinene], the “effect” value in the assay on BV2 microglial cells [1] was “no effects”.
